# Measured values taken from the supplement of paper PMC10307832.
# Compound: Cc1ccc(Nc2nccc(N(C)c3ccc4c(C)n(C)nc4c3)n2)cc1S(N)(=O)=O [Pazopanib] + O=C(CCCCCCC(=O)Nc1ccccc1)NO [Vorinostat] (partner 1 µM)
# Test: relative viability (nuclei count vs DMSO), 5 days (fraction); higher = more cells survive
# Details: first compound 0.01 µM
# Summary of the method: (§1)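 Lung cancer cell lines were pin-tool dosed in 1536-well plates on the day after seeding, with either a lone drug or a fixed anchor-drug dose plus five library-drug doses (not always all listed) in √10 steps. Nuclei were counted on 4× images after 5 days. Relative viability is the ratio of treated-well to vehicle-well nuclei counts, with each value a median of duplicate plates.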
row,Cell Line,relative viability
1,BEN,0.593
2,HARA,0.475
3,NCI-H441,0.736
4,NCI-H2009,0.72
5,A-427,0.862
6,NCI-H460,0.719
7,NCI-H1734,0.66
8,NCI-H520,0.678
9,NCI-H2405,0.925
10,SW 1573,0.641
11,201T,0.892
12,NCI-H1915,0.385
13,HCC-827,0.895
14,LXF-289,0.767
15,NCI-H23,0.431
16,NCI-H650,0.381
17,CAL-12T,0.742
18,NCI-H1651,0.536
19,EPLC-272H,0.389
20,NCI-H2228,1.12
21,NCI-H1355,0.488
22,NCI-H322M,0.916
23,NCI-H1437,0.833
24,NCI-H1755,0.65
25,NCI-H2023,0.551
26,HCC-15,0.878
27,EKVX,0.674
28,LC-2-ad,0.697
29,NCI-H1975,0.712
30,SK-LU-1,0.756

# Same assay, conditions: first compound 0.03162 µM
row,Cell Line,relative viability
1,LU99A,0.493
2,BEN,0.606
3,HARA,0.424
4,HCC-78,0.455
5,NCI-H441,1.06
6,LCLC-97TM1,0.877
7,NCI-H2009,0.744
8,A-427,0.941
9,NCI-H460,0.765
10,NCI-H1734,0.864
11,NCI-H520,0.717
12,NCI-H2405,1.16
13,SW 1573,0.692
14,201T,0.949
15,NCI-H1915,0.481
16,HCC-827,0.839
17,LXF-289,0.798

row,Cell Line,relative viability
1,NCI-H23,0.641
2,NCI-H650,0.466
3,CAL-12T,0.649
4,NCI-H1651,0.588
5,EPLC-272H,0.432
6,NCI-H2228,1.01
7,NCI-H1355,0.632
8,NCI-H322M,0.989
9,NCI-H1437,0.778
10,NCI-H1755,0.744
11,NCI-H2023,0.712
12,HCC-15,0.906
13,PC-3 [JPC-3],0.79
14,EKVX,0.731
15,LC-2-ad,0.719
16,NCI-H1975,0.76
17,SK-LU-1,0.852

# Same assay, conditions: first compound 0.1 µM
row,Cell Line,relative viability
1,LU99A,0.459
2,BEN,0.533
3,HARA,0.605
4,HCC-78,0.433
5,NCI-H441,0.865
6,LCLC-97TM1,0.58
7,NCI-H2009,0.757
8,A-427,0.825
9,NCI-H460,0.749
10,NCI-H1734,0.882
11,NCI-H520,0.742
12,NCI-H2405,0.93
13,SW 1573,0.648
14,201T,0.937
15,NCI-H1915,0.513
16,HCC-827,0.843
17,LXF-289,0.779

row,Cell Line,relative viability
1,NCI-H23,0.628
2,NCI-H650,0.398
3,CAL-12T,0.744
4,NCI-H1651,0.621
5,EPLC-272H,0.682
6,NCI-H2228,0.706
7,NCI-H1355,0.696
8,NCI-H322M,0.765
9,NCI-H1437,0.82
10,NCI-H1755,0.876
11,NCI-H2023,0.745
12,HCC-15,0.867
13,PC-3 [JPC-3],0.597
14,EKVX,0.79
15,LC-2-ad,0.732
16,NCI-H1975,0.805
17,SK-LU-1,0.755

# Same assay, conditions: first compound 0.3162 µM
row,Cell Line,relative viability
1,LU99A,0.545
2,BEN,0.591
3,HARA,0.438
4,HCC-78,0.412
5,NCI-H441,0.838
6,LCLC-97TM1,0.797
7,NCI-H2009,0.692
8,A-427,0.903
9,NCI-H460,0.677
10,NCI-H1734,0.942
11,NCI-H520,0.581
12,NCI-H2405,1.11
13,SW 1573,0.992
14,201T,1.02
15,NCI-H1915,0.525
16,HCC-827,0.922
17,LXF-289,0.732

row,Cell Line,relative viability
1,NCI-H23,0.661
2,NCI-H650,0.364
3,CAL-12T,0.754
4,NCI-H1651,0.534
5,EPLC-272H,0.652
6,NCI-H2228,0.59
7,NCI-H1355,0.643
8,NCI-H322M,0.948
9,NCI-H1437,0.762
10,NCI-H1755,0.812
11,NCI-H2023,0.637
12,HCC-15,0.893
13,PC-3 [JPC-3],0.973
14,EKVX,0.742
15,LC-2-ad,0.771
16,NCI-H1975,0.723
17,SK-LU-1,0.621

# Same assay, conditions: first compound 1 µM
row,Cell Line,relative viability
1,LU99A,0.554
2,BEN,0.563
3,HARA,0.605
4,HCC-78,0.446
5,NCI-H441,0.645
6,LCLC-97TM1,0.736
7,NCI-H2009,0.765
8,A-427,0.971
9,NCI-H460,0.723
10,NCI-H1734,0.875
11,NCI-H520,0.549
12,NCI-H2405,1.16
13,SW 1573,0.525
14,201T,0.843
15,NCI-H1915,0.455
16,HCC-827,0.785
17,LXF-289,0.812

row,Cell Line,relative viability
1,NCI-H23,0.782
2,NCI-H650,0.485
3,CAL-12T,0.834
4,NCI-H1651,0.637
5,EPLC-272H,0.535
6,NCI-H2228,0.619
7,NCI-H1355,0.651
8,NCI-H322M,0.995
9,NCI-H1437,0.75
10,NCI-H1755,0.75
11,NCI-H2023,0.827
12,HCC-15,0.791
13,PC-3 [JPC-3],0.93
14,EKVX,0.604
15,LC-2-ad,0.732
16,NCI-H1975,0.754
17,SK-LU-1,0.861

# Compound: Cc1ccc(C(=O)Nc2ccc(CN3CCN(C)CC3)c(C(F)(F)F)c2)cc1C#Cc1cnc2cccnn12 [Ponatinib] + Nc1nc2[nH]cc(CCc3ccc(C(=O)N[C@@H](CCC(=O)O)C(=O)O)cc3)c2c(=O)[nH]1 [Pemetrexed] (partner 0.2 µM)
# Test: as above
# Details: first compound 0.002 µM
# Summary of the method: as §1
row,Cell Line,relative viability
1,LU99A,0.17
2,BEN,0.678
3,HARA,0.262
4,HCC-78,0.576
5,NCI-H441,0.266
6,LCLC-97TM1,0.166
7,NCI-H2009,1.05
8,A-427,0.928
9,NCI-H460,0.06
10,NCI-H1734,0.394
11,NCI-H520,0.59
12,NCI-H2405,0.913
13,SW 1573,0.841
14,201T,0.319
15,NCI-H1915,0.459
16,HCC-827,0.234
17,LXF-289,0.74

row,Cell Line,relative viability
1,NCI-H23,0.616
2,NCI-H650,0.815
3,CAL-12T,1.13
4,NCI-H1651,0.558
5,EPLC-272H,0.397
6,NCI-H2228,0.382
7,NCI-H1355,0.983
8,NCI-H322M,0.639
9,NCI-H1437,0.312
10,NCI-H1755,0.402
11,NCI-H2023,0.17
12,HCC-15,0.223
13,EKVX,0.382
14,LC-2-ad,0.274
15,NCI-H1975,0.276
16,SK-LU-1,0.978

# Same assay, conditions: first compound 0.006325 µM
row,Cell Line,relative viability
1,LU99A,0.173
2,BEN,0.718
3,HARA,0.23
4,HCC-78,0.885
5,NCI-H441,0.256
6,LCLC-97TM1,0.142
7,NCI-H2009,0.935
8,A-427,0.986
9,NCI-H460,0.062
10,NCI-H1734,0.399
11,NCI-H520,0.636
12,NCI-H2405,1.06
13,SW 1573,0.802
14,201T,0.324
15,NCI-H1915,0.423
16,HCC-827,0.304
17,LXF-289,0.846

row,Cell Line,relative viability
1,NCI-H23,0.766
2,NCI-H650,0.965
3,CAL-12T,1.14
4,NCI-H1651,0.627
5,EPLC-272H,0.359
6,NCI-H2228,0.339
7,NCI-H1355,0.975
8,NCI-H322M,0.677
9,NCI-H1437,0.294
10,NCI-H1755,0.404
11,NCI-H2023,0.222
12,HCC-15,0.217
13,PC-3 [JPC-3],1.09
14,EKVX,0.493
15,LC-2-ad,0.272
16,NCI-H1975,0.293
17,SK-LU-1,1.07

# Same assay, conditions: first compound 0.06325 µM
row,Cell Line,relative viability
1,LU99A,0.186
2,BEN,0.749
3,HARA,0.246
4,HCC-78,0.865
5,NCI-H441,0.297
6,LCLC-97TM1,0.167
7,NCI-H2009,0.959
8,A-427,0.981
9,NCI-H460,0.0629
10,NCI-H1734,0.44
11,NCI-H520,0.556
12,NCI-H2405,1.1
13,SW 1573,0.835
14,201T,0.346
15,NCI-H1915,0.529
16,HCC-827,0.288
17,LXF-289,0.982

row,Cell Line,relative viability
1,NCI-H23,0.819
2,NCI-H650,0.948
3,CAL-12T,1.31
4,NCI-H1651,0.614
5,EPLC-272H,0.388
6,NCI-H2228,0.358
7,NCI-H1355,1.14
8,NCI-H322M,0.655
9,NCI-H1437,0.32
10,NCI-H1755,0.398
11,NCI-H2023,0.235
12,HCC-15,0.226
13,PC-3 [JPC-3],1.12
14,EKVX,0.427
15,LC-2-ad,0.296
16,NCI-H1975,0.297
17,SK-LU-1,0.958

# Same assay, conditions: first compound 0.2 µM
row,Cell Line,relative viability
1,LU99A,0.315
2,BEN,0.767
3,HARA,0.282
4,HCC-78,0.894
5,NCI-H441,0.215
6,LCLC-97TM1,0.161
7,NCI-H2009,0.934
8,A-427,0.908
9,NCI-H460,0.0632
10,NCI-H1734,0.395
11,NCI-H520,0.407
12,NCI-H2405,1.01
13,SW 1573,0.838
14,201T,0.352
15,NCI-H1915,0.423
16,HCC-827,0.247
17,LXF-289,0.891

row,Cell Line,relative viability
1,NCI-H23,0.666
2,NCI-H650,0.872
3,CAL-12T,1.21
4,NCI-H1651,0.588
5,EPLC-272H,0.408
6,NCI-H2228,0.306
7,NCI-H1355,1.07
8,NCI-H322M,0.589
9,NCI-H1437,0.27
10,NCI-H1755,0.466
11,NCI-H2023,0.186
12,HCC-15,0.224
13,PC-3 [JPC-3],1.1
14,EKVX,0.374
15,LC-2-ad,0.263
16,NCI-H1975,0.257
17,SK-LU-1,0.84

# Compound: Cc1ccc(Nc2nccc(N(C)c3ccc4c(C)n(C)nc4c3)n2)cc1S(N)(=O)=O [Pazopanib] + CC(C)C[C@H](NC(=O)[C@H](Cc1ccccc1)NC(=O)c1cnccn1)B(O)O [Bortezomib] (partner 0.002 µM)
# Test: as above
# Details: first compound 0.01 µM
# Summary of the method: as §1
row,Cell Line,relative viability
1,LU99A,0.913
2,BEN,0.581
3,HARA,1.14
4,HCC-78,0.408
5,NCI-H441,0.377
6,LCLC-97TM1,0.506
7,NCI-H2009,0.892
8,A-427,0.934
9,NCI-H460,1.03
10,NCI-H1734,0.846
11,NCI-H2405,0.925
12,SW 1573,0.945
13,201T,1.09
14,NCI-H1915,0.936
15,HCC-827,0.963
16,LXF-289,0.998
17,NCI-H23,0.813
